One data set has as its target human BACE1 (Homo sapiens, UniProt P56817). Kind of data set: Fluorescent kinetic assay, inhibition of BACE1 (WABC-6 peptide substrate).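 Note: fluorescence monitored at 320 nm excitation and 420 nm emission every 40 s over 30 min, with the substrate cleavage rate taken from the linear slope.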 Conditions: 10 nM enzyme, 25 μM substrate WABC-6, pH 4.5, room temperature; read-out: IC50 (μM) BACE1. The class given is biochemical.
A further data set concerns the target T1, human BACE2 (Homo sapiens, UniProt Q9Y5Z0).
T1 sequence (Q9Y5Z0 63-518): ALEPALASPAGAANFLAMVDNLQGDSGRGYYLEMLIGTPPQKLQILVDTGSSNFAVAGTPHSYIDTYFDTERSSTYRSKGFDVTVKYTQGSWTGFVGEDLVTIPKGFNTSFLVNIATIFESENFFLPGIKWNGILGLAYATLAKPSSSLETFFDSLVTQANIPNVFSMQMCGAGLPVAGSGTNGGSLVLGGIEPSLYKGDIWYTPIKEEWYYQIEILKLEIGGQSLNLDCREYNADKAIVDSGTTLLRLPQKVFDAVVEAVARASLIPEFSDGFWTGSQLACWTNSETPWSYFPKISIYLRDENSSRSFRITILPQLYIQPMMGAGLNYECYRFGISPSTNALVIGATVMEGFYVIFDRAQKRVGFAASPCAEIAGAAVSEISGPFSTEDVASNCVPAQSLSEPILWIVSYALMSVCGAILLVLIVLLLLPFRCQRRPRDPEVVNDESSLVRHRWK
Nature of the data set: Fluorescent Kinetic Assay for Human Recombinant BACE 2 (selectivity BACE1/BACE2).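 Note: cleavage rate from the linear slope of fluorescence (excitation 320 nm, emission 420 nm) recorded every 40 s over 30 min at room temperature, sodium acetate buffer with 0.05% CHAPS.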 It is filed as biochemical. Conditions: selectivity BACE1 over BACE2; 1.5 nM human BACE2, 25 μM substrate, pH 4.5.

human BACE1, sequence (P56817 46-501): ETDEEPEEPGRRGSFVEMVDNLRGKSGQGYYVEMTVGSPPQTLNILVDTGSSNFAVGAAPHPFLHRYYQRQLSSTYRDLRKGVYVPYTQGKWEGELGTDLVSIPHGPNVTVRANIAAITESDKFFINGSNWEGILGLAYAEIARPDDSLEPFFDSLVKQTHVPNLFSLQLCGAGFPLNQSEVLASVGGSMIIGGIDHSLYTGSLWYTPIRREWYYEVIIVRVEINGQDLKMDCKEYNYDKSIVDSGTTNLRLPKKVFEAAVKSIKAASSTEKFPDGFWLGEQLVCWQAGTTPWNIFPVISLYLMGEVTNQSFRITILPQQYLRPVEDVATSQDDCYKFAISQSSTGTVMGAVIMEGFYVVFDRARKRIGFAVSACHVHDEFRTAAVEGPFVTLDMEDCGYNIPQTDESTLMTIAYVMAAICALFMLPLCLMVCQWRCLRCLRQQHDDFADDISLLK

Broadly, the IC50 is the concentration needed to halve the response being measured. By melting point is commonly meant the temperature, or range, at which the solid turns liquid. In turn, `Cc1cc(C2(c3ccc(F)c(-c4cncnc4)c3)N=C(N)N(C)C2=O)ccc1OCCF` (stereo not drawn) [Example 113] yielded a melting point of 108 to 110 °C. Besides, at human BACE1, the IC50 was 0.01 to 0.1 µM. The BACE1/BACE2 selectivity result at human BACE2 was “I (I = >100-fold selectivity)”.

In the case of `Cc1cc(C2(c3cccc(-c4cncnc4)c3)N=C(N)N(C)C2=O)ccc1OCc1ccccc1` (stereo not drawn) [Example 114], the melting point fell in the range of 107 to 109 °C. Moreover, on human BACE1, the half-maximal inhibitory concentration (IC50) was in the range of 0.01 to 0.1 µM. Further, the BACE1/BACE2 selectivity result on human BACE2 is “II (II = 10-100-fold selectivity)”.

`Cc1cc(C2(c3cccc(-c4cncnc4)c3)N=C(N)N(C)C2=O)ccc1O` (stereo not drawn) [Example 115] registered a melting point of 168 to 170 °C. Also, the half-maximal inhibitory concentration (IC50) at human BACE1 was in the range of 0.01 to 0.1 µM. In addition, on human BACE2, the BACE1/BACE2 selectivity result is recorded as “II (II = 10-100-fold selectivity)”.

Compound `Cc1cc(C2(c3cccc(-c4cncnc4)c3)N=C(N)N(C)C2=O)ccc1OCCF` (stereo not drawn) [Example 116] returned a melting point of 108 to 110 °C. The concentration for half-maximal inhibition (IC50) at human BACE1 was in the range of 0.01 to 0.1 µM. The BACE1/BACE2 selectivity result at human BACE2 was “II (II = 10-100-fold selectivity)”.

Compound `Cc1cc(C2(c3cccc(-c4cncnc4)c3)N=C(N)N(C)C2=O)ccc1OCC#N` (stereo not drawn) [Example 117] returned a melting point of 220 to 222 °C. For the same compound, the half-inhibitory concentration (IC50) on human BACE1 was in the range of 0.01 to 0.1 µM. For the same compound, at human BACE2, the BACE1/BACE2 selectivity entry was “II (II = 10-100-fold selectivity)”.

Take `Cc1cc(C2(c3cccc(-c4cncnc4)c3)N=C(N)N(C)C2=O)ccc1OC(C)C` (stereo not drawn) [Example 118]: the melting point was 101 to 103 °C. At human BACE1, the concentration for half-maximal inhibition (IC50) lay in the range of 0.01 to 0.1 µM. In addition, the BACE1/BACE2 selectivity result on human BACE2 is “I (I = >100-fold selectivity)”.

Turning to `CCOC(=O)COc1ccc(C2(c3cccc(-c4cncnc4)c3)N=C(N)N(C)C2=O)cc1C` (stereo not drawn) [Example 119], the melting point lay in the range of 105 to 107 °C. In addition, the IC50 on human BACE1 is 0.11 to 1 µM. Further, the BACE1/BACE2 selectivity entry at human BACE2 was “II (II = 10-100-fold selectivity)”.

`CCOc1ccc(C2(c3cccc(-c4cncnc4)c3)N=C(N)N(C)C2=O)cc1C` (stereo not drawn) [Example 120] yielded a melting point of 106 to 108 °C. Moreover, the IC50 at human BACE1 lay within 0.01 to 0.1 µM. Moreover, the BACE1/BACE2 selectivity entry on human BACE2 is reported as “I (I = >100-fold selectivity)”.

In turn, `CCCOc1ccc(C2(c3cccc(-c4cncnc4)c3)N=C(N)N(C)C2=O)cc1C` (stereo not drawn) [Example 121] displayed a melting point of 102 to 104 °C. On human BACE1, the IC50 was in the range of 0.01 to 0.1 µM. The BACE1/BACE2 selectivity entry on human BACE2 is on record as “II (II = 10-100-fold selectivity)”.

As for `Cc1cc(C2(c3cccc(-c4cncnc4)c3)N=C(N)N(C)C2=O)ccc1OCC(C)C` (stereo not drawn) [Example 122], the melting point lay in the range of 103 to 105 °C. The IC50 at human BACE1 was 0.01 to 0.1 µM. Also, the BACE1/BACE2 selectivity entry on human BACE2 is on record as “II (II = 10-100-fold selectivity)”.

The compound `Cc1cc(C2(c3cccc(-c4cncnc4)c3)N=C(N)N(C)C2=O)ccc1OCCCOc1ccccc1` (stereo not drawn) [Example 124] displayed a melting point of 72 to 74 °C. In addition, the concentration for half-maximal inhibition (IC50) at human BACE1 lay in the range of 0.01 to 0.1 µM. Further, the BACE1/BACE2 selectivity entry on human BACE2 was “II (II = 10-100-fold selectivity)”.

With `CN1C(=S)C(c2ccc(OC(F)(F)F)cc2)(c2cccc(-c3cccnc3F)c2)N=C1N` (stereo not drawn) [Example 145, 2-Amino-5-[3-(2-fluoro-pyridin-3-yl)-phenyl]-3-methyl-5-(4-trifluoromethoxy-phenyl)-3,5-dihydro-imidazole-4-thione], the melting point was 89 to 99 °C. Moreover, the concentration for half-maximal inhibition (IC50) at human BACE1 was in the range of 0.01 to 0.1 µM. Moreover, on human BACE2, the BACE1/BACE2 selectivity result was “II (II = 10-100-fold selectivity)”.

For the origin of these results see patent publication US7700602B2, “Amino-5,5-diphenylimidazolone derivatives for the inhibition of β-secretase” (Wyeth LLC, priority 2004, dated 2010).
